Where “and” joins values, the source holds several entries; their conditions need not be identical. Equal values may be shown once. Inconclusive results and toxic doses are left out.
Test system: BDF1 mice, P388 leukemia ip, median survival T/C
Assay: NCI In Vivo Anticancer Drug Screen. Data for tumor model P388 Leukemia (intraperitoneal) in B6D2F1 (BDF1) mice
Conditions: endpoint: median survival time, higher = longer survival
How it was run: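 Steps: implant the tumour, treat one group with compound and another with vehicle, record survival, then divide treated by control.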

[1] = dose: 12.5 mg/kg/injection, schedule: Q04DX003 (ip), vehicle: Klucel (hydroxypropylcellulose) (HPC)
[2] = dose: 50.0 mg/kg/injection, schedule: Q01DX009 (ip), vehicle: saline with Tween-80
[3] = dose: 100.0 mg/kg/injection, schedule: Q04DX003 (ip), vehicle: saline with Tween-80
[4] = dose: 25.0 mg/kg/injection, schedule: Q04DX003 (ip), vehicle: Klucel (hydroxypropylcellulose) (HPC)
[5] = dose: 50.0 mg/kg/injection, schedule: Q04DX003 (ip), vehicle: Klucel (hydroxypropylcellulose) (HPC)

For `c1ccc2c(c1)C1=NCCN1c1ccccc1-2`, the T/C (dose: 5.3 mg/kg/injection, schedule: Q01DX009 (ip), vehicle: Klucel (hydroxypropylcellulose) (HPC)) was 86 % of control, the T/C (dose: 8.0 mg/kg/injection, schedule: Q01DX009 (ip), vehicle: Klucel (hydroxypropylcellulose) (HPC)) was 86 % of control and the T/C (dose: 10.0 mg/kg/injection, schedule: Q01DX009 (ip), vehicle: Klucel (hydroxypropylcellulose) (HPC)) was 115 % of control. The T/C (dose: 12.0 mg/kg/injection, schedule: Q01DX009 (ip), vehicle: Klucel (hydroxypropylcellulose) (HPC)) was 95 % of control, the T/C (dose: 17.7 mg/kg/injection, schedule: Q01DX009 (ip), vehicle: Klucel (hydroxypropylcellulose) (HPC)) was 108 % of control and the T/C (dose: 20.0 mg/kg/injection, schedule: Q01DX009 (ip), vehicle: Klucel (hydroxypropylcellulose) (HPC)) was 110 % of control. For the same compound, the T/C (dose: 40.0 mg/kg/injection, schedule: Q01DX009 (ip), vehicle: Klucel (hydroxypropylcellulose) (HPC)) was 150 % of control.

With `COc1cccc2c1C(=O)c1c(O)c3c(c(O)c1C2=O)CC(O)(C(C)=O)CC3O` (stereo unspecified) the T/C (dose: 1.25 mg/kg/injection, schedule: Q01DX001 (ip), vehicle: saline) was 95 % of control and 104 % of control, the T/C (dose: 2.5 mg/kg/injection, schedule: Q01DX001 (ip), vehicle: saline) was 100 % of control and 110 % of control and the T/C (dose: 5.0 mg/kg/injection, schedule: Q01DX001 (ip), vehicle: saline) was 100 % of control. The T/C (dose: 10.0 mg/kg/injection, schedule: Q01DX001 (ip), vehicle: saline) was 100 % of control and 109 % of control.

For `Cc1cc(C)c([I+]c2c(C)cc(C)cc2C)c(C)c1`, the T/C (dose: 0.28 mg/kg/injection, schedule: Q01DX009 (ip), vehicle: saline) was 118 % of control, the T/C (dose: 0.45 mg/kg/injection, schedule: Q04DX003 (ip), vehicle: saline) was 109 % of control and the T/C (dose: 0.56 mg/kg/injection, schedule: Q01DX009 (ip), vehicle: saline) was 118 % of control. For the same compound, the T/C (dose: 0.65 mg/kg/injection, schedule: Q04DX003 (ip), vehicle: saline) was 109 % of control, the T/C (dose: 1.1 mg/kg/injection, schedule: Q04DX003 (ip), vehicle: saline) was 120 % of control and the T/C (dose: 1.13 mg/kg/injection, schedule: Q01DX009 (ip), vehicle: saline) was 109 % of control. The T/C (dose: 1.65 mg/kg/injection, schedule: Q04DX003 (ip), vehicle: saline) was 120 % of control, the T/C (dose: 3.0 mg/kg/injection, schedule: Q01DX009 (ip), vehicle: Klucel (hydroxypropylcellulose) (HPC)) was 103 % of control and the T/C (dose: 3.0 mg/kg/injection, schedule: Q04DX003 (ip), vehicle: Klucel (hydroxypropylcellulose) (HPC)) was 112 % of control. The T/C (dose: 6.0 mg/kg/injection, schedule: Q01DX009 (ip), vehicle: Klucel (hydroxypropylcellulose) (HPC)) was 111 % of control, the T/C (dose: 6.0 mg/kg/injection, schedule: Q04DX003 (ip), vehicle: Klucel (hydroxypropylcellulose) (HPC)) was 100 % of control and the T/C (dose: 8.0 mg/kg/injection, schedule: Q04DX003 (ip), vehicle: Klucel (hydroxypropylcellulose) (HPC)) was 95 % of control. The T/C (dose: 8.0 mg/kg/injection, schedule: Q04DX003 (ip), vehicle: saline with Tween-80) was 120 % of control and the T/C [1] was 115 % of control.

`COc1cc2c3c(c1O)C1(C=CC(=O)C=C1)CC3N(C)CC2` (stereo unspecified) was tested, and the T/C [2] was 112 % of control and the T/C (dose: 100.0 mg/kg/injection, schedule: Q01DX009 (ip), vehicle: saline with Tween-80) was 115 % of control.

`N/C(=N\O)c1cn(C2OC(CO)C(O)C2O)c2ncnc(N)c12` (stereo unspecified) was tested, and the T/C (dose: 0.6 mg/kg/injection, schedule: Q01DX009 (ip), vehicle: Klucel (hydroxypropylcellulose) (HPC)) was 150 % of control, the T/C (dose: 1.25 mg/kg/injection, schedule: Q01DX009 (ip), vehicle: Klucel (hydroxypropylcellulose) (HPC)) was 168 % of control and the T/C (dose: 2.5 mg/kg/injection, schedule: Q01DX009 (ip), vehicle: Klucel (hydroxypropylcellulose) (HPC)) was 154 % of control. The T/C (dose: 5.0 mg/kg/injection, schedule: Q01DX009 (ip), vehicle: Klucel (hydroxypropylcellulose) (HPC)) was 172 % of control.

With `Cc1ccc(S(=O)(=O)OCCN(CCOS(=O)(=O)c2ccc(C)cc2)c2ccc(C=O)cc2)cc1` the T/C (dose: 66.0 mg/kg/injection, schedule: Q04DX003 (ip), vehicle: saline with Tween-80) was 191 % of control, the T/C [3] was 250 % of control and the T/C (dose: 150.0 mg/kg/injection, schedule: Q04DX003 (ip), vehicle: saline with Tween-80) was 204 % of control.

For `COc1cc2c(c3c1c(=O)c1ccccc1n3C)C=CC(C)(C)O2`, the T/C (dose: 12.5 mg/kg/injection, schedule: Q01DX010 (ip), vehicle: saline) was 100 % of control, the T/C (dose: 25.0 mg/kg/injection, schedule: Q01DX010 (ip), vehicle: saline) was 90 % of control and the T/C (dose: 50.0 mg/kg/injection, schedule: Q01DX010 (ip), vehicle: saline) was 90 % of control. The T/C (dose: 100.0 mg/kg/injection, schedule: Q01DX010 (ip), vehicle: saline) was 90 % of control.

With `O=C(Nc1cccc(C2=NCCN2)c1)c1ccc(C(=O)Nc2cccc(C3=NCCN3)c2)c(Cl)c1` the T/C (dose: 1.0 mg/kg/injection, schedule: Q01DX010 (ip), vehicle: water) was 100 % of control, the T/C (dose: 2.0 mg/kg/injection, schedule: Q01DX010 (ip), vehicle: water) was 100 % of control and the T/C (dose: 4.0 mg/kg/injection, schedule: Q01DX010 (ip), vehicle: water) was 100 % of control.

With `C=CCOCC1CO1` (stereo unspecified) the T/C (dose: 12.5 mg/kg/injection, schedule: Q01DX009 (ip), vehicle: saline) was 99 % of control, the T/C (dose: 25.0 mg/kg/injection, schedule: Q01DX009 (ip), vehicle: saline) was 106 % of control and the T/C (dose: 50.0 mg/kg/injection, schedule: Q01DX009 (ip), vehicle: saline) was 100 % of control. For the same compound, the T/C (dose: 100.0 mg/kg/injection, schedule: Q01DX009 (ip), vehicle: saline) was 109 % of control and the T/C (dose: 200.0 mg/kg/injection, schedule: Q01DX009 (ip), vehicle: saline) was 117 % of control.

`CCOC(=O)c1cc2c(nn3c(C)cccc23)n(CC)c1=N` was tested, and the T/C (dose: 6.25 mg/kg/injection, schedule: Q01DX001 (ip), vehicle: saline) was 105 % of control, the T/C (dose: 12.5 mg/kg/injection, schedule: Q01DX001 (ip), vehicle: saline) was 122 % of control and the T/C (dose: 25.0 mg/kg/injection, schedule: Q01DX001 (ip), vehicle: saline) was 100 % of control.

With `Clc1nc2nc(Cl)n(Cl)c2nc1Cl` the T/C (dose: 12.5 mg/kg/injection, schedule: Q01DX006 (ip), vehicle: saline with Tween-80) was 100 % of control, the T/C (dose: 25.0 mg/kg/injection, schedule: Q01DX006 (ip), vehicle: saline with Tween-80) was 91 % of control and the T/C (dose: 25.0 mg/kg/injection, schedule: Q01DX009 (ip), vehicle: saline with Tween-80) was 86 % of control. The T/C (dose: 25.0 mg/kg/injection, schedule: Q01DX009 (ip), vehicle: water) was 109 % of control, the T/C (dose: 50.0 mg/kg/injection, schedule: Q01DX006 (ip), vehicle: saline with Tween-80) was 109 % of control and the T/C [2] was 86 % of control. For the same compound, the T/C (dose: 50.0 mg/kg/injection, schedule: Q04DX003 (ip), vehicle: saline with Tween-80) was 105 % of control, the T/C (dose: 100.0 mg/kg/injection, schedule: Q01DX009 (ip), vehicle: water) was 111 % of control and the T/C [3] was 105 % of control. For the same compound, the T/C (dose: 200.0 mg/kg/injection, schedule: Q01DX009 (ip), vehicle: water) was 116 % of control and the T/C (dose: 200.0 mg/kg/injection, schedule: Q04DX003 (ip), vehicle: saline with Tween-80) was 112 % of control.

For `CCOC(=O)CC/[N+]([O-])=C/c1ccccc1`, the T/C (dose: 12.5 mg/kg/injection, schedule: Q01DX009 (ip), vehicle: other) was 97 % of control, the T/C (dose: 25.0 mg/kg/injection, schedule: Q01DX009 (ip), vehicle: other) was 112 % of control and the T/C (dose: 50.0 mg/kg/injection, schedule: Q01DX009 (ip), vehicle: other) was 92 % of control. For the same compound, the T/C (dose: 100.0 mg/kg/injection, schedule: Q01DX009 (ip), vehicle: other) was 97 % of control and the T/C (dose: 200.0 mg/kg/injection, schedule: Q01DX009 (ip), vehicle: other) was 104 % of control.

With `COc1ccc(C(=O)OCCN(CCN(CCOC(=O)c2ccc(OC)cc2)C(=O)c2ccc(OC)cc2)C(=O)c2ccc(OC)cc2)cc1` the T/C (dose: 6.25 mg/kg/injection, schedule: Q01DX009 (ip), vehicle: Klucel (hydroxypropylcellulose) (HPC)) was 95 % of control, the T/C (dose: 12.5 mg/kg/injection, schedule: Q01DX009 (ip), vehicle: Klucel (hydroxypropylcellulose) (HPC)) was 95 % of control and the T/C [4] was 91 % of control. The T/C [5] was 90 % of control, the T/C (dose: 100.0 mg/kg/injection, schedule: Q04DX003 (ip), vehicle: Klucel (hydroxypropylcellulose) (HPC)) was 96 % of control and the T/C (dose: 200.0 mg/kg/injection, schedule: Q04DX003 (ip), vehicle: Klucel (hydroxypropylcellulose) (HPC)) was 91 % of control.

With `CCC(c1ccc(OC)cc1)C(NCC(=O)N/N=C/c1ccccc1[N+](=O)[O-])c1ccc(OC)cc1` (stereo unspecified) the T/C (dose: 12.5 mg/kg/injection, schedule: Q01DX001 (ip), vehicle: saline with Tween-80) was 91 % of control.

In the case of `O=C1C(C(O)c2ccccc2)SC(c2ccccc2)N1c1ccccc1` (stereo unspecified), the T/C [1] is reported as 96 % of control, the T/C [4] is reported as 96 % of control and the T/C [5] is reported as 96 % of control. The T/C (dose: 400.0 mg/kg/injection, schedule: Q04DX003 (ip), vehicle: Klucel (hydroxypropylcellulose) (HPC)) was 90 % of control.

Reference: PubChem BioAssay AID328 (DTP/NCI, 2004)
